The record followed here is PMC4301998 (Bioorganic & medicinal chemistry, 2014).

Data set [1] has as its system nine human cancer cell lines and three non-cancerous cell lines; additional colon cancer cells. Nature of the data set: MTT cell survival assay, statements over several cell lines. The note with it: for IC50: Homo sapiens. Format: cell-based. On the technique in general: Tetrazolium dyes change colour on reduction, which living cells bring about.
For data set [2], the system named is HCT-116 colon cancer cells. Nature of the data set: MTT cell survival assay, HCT-116. Format: cell-based. As to conditions: Homo sapiens, HCT-116, read-out: IC50 ± SD, HCT-116.
The target of a further data set is T1, human PXR (Homo sapiens, UniProt O75469).
T1 sequence (O75469 1-434): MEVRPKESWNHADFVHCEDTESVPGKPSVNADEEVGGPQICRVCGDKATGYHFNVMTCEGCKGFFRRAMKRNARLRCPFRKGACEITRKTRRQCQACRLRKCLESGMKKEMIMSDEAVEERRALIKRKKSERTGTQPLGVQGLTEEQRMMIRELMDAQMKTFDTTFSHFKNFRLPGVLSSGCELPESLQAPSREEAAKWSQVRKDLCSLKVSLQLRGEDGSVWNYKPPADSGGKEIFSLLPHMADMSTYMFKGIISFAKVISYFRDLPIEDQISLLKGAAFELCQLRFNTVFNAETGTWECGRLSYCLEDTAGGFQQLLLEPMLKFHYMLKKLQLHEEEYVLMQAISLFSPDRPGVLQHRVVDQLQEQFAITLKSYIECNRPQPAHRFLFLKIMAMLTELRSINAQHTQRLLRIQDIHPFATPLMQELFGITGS
The data set can be described thus: PXR transactivation assay. As to conditions: HepG2 reporter gene assay, 24 hr treatment, vs DMSO; IND-2 at 1 or 10 μM.

Data set [3] concerns HCT-116, HCT-15, and HEK293 cells. Nature of the data set: Morphological analysis by microscopy. The note with it: 0, 0.5, 2, or 10 μM, 68 hrs of treatment; HCT-116, HCT-15, HEK293. The class given is cell-based, human.
In a further data set the test system is HCT-116 cells. The data set can be described thus: Chromosomal DNA fragmentation assay. Format: cell-based, human. The note with it: 2.5 μM, 6 hr.
Another data set concerns HEK293/ABCB1 cells. Nature of the data set: MTT cytotoxicity in ABCB1-overexpressing cells. The class given is cell-based, human. The note with it: HEK293/ABCB1 vs HEK293/pcDNA3.1, MTT.
In data set [4] the test system is HEK293/R2 (ABCG2-overexpressing cells). Nature of the data set: MTT cytotoxicity in ABCG2-overexpressing cells. Format: cell-based, human. As to conditions: HEK293/R2 vs HEK293/pcDNA3.1, MTT.
For a further data set, the system named is HepG2 cells. The note with it: 24 hr, CellTiter-Glo. A general note: In ATP-based viability assays light output follows the ATP content of the culture.
Data set [5] relates to S1-M1-80 cells (G482 mutant ABCG2-overexpressing). The data set can be described thus: MTT cytotoxicity in drug-resistant colon cancer cells. The class given is cell-based, human. As to conditions: S1-M1-80 vs S1, MTT; p < 0.001.

Where two headings read alike, the source gives them in different places. Some results are limits rather than exact numbers.

As usually defined, the IC50 is the concentration that gives 50% inhibition. For `Cc1cc(=O)n2nc3nc4ccccc4cc3c2[nH]1` [IND-1, 2-Methylpyrimido[1”,2”:1,5]pyrazolo[3,4-b]quinoline-4(1H)-one], the concentration for half-maximal inhibition (IC50) in [1] (read-out: IC50 on the tested cells) was > 40000 nM.

On to `Cc1cc(Cl)n2nc3nc4ccccc4cc3c2n1` [IND-2, 4-Chloro-2-methyl pyrimido[1“,2”:1,5]pyrazolo[3,4-b]quinoline], for which the IC50 was 634 ± 120 nM in data set [2]; 800 to 1200 nM in [1] (DU-145, read-out: IC50 values against prostate cancer cells); < 1000 nM in data set [1] (read-out: IC50 values on colon cancer cells). In data set [1] (colon cancer cells vs HEK293), the “selectivity for inhibition of colon cancer cells relative to HEK293 cells” value is 10-15 fold. Further, in data set [1] (colon cancer cells vs NIH/3T3 and MDCK), the “selectivity relative to NIH/3T3 mouse fibroblast cells and MDCK cells” value is given as 20-40 fold. The “selectivity for colon cancer cells relative to other cancer cells” value in data set [1] (vs breast, ovarian, and hepatocellular carcinoma cells) is 10-30 fold. Moreover, the “PXR transactivation of CYP3A4 promoter activity” value at human PXR was “did not affect PXR transactivation”. Moreover, in data set [3], the “morphological changes of cells” value is “morphological changes”. Further, in the data set on HCT-116 cells, the “fragmentation of chromosomal DNA” value is recorded as “led to fragmentation of chromosomal DNA”. Further, the “resistance of ABCB1-overexpressing cells” value in the data set with HEK293/ABCB1 cells was “no substantial resistance”. Also, the “resistance of ABCG2-overexpressing cells” value in [4] is given as “no substantial resistance”. Besides, the “HepG2 cell viability (cytotoxicity)” value in the data set with HepG2 cells (1 μM) is “non-cytotoxic”; in the data set with HepG2 cells (10 μM) it was “marginally cytotoxic”.

As to `Cc1cc(N(C)C)n2nc3nc4ccccc4cc3c2n1` [IND-3, N,N,2-Trimethyl benzopyrido[2’,3’:3,4]pyrazolo[1,5-a]pyrimidin-4-amine], the concentration for half-maximal inhibition (IC50) in data set [1] (read-out: IC50 values against ovarian and breast cancer cells) was 44000 to 50000 nM.

For `CCc1c2c(nc3ccc(O)cc13)-c1cc3c(c(=O)n1C2)COC(=O)[C@]3(O)CC` [SN-38], in data set [5], the “resistance of S1-M1-80 cells to the drug” value is on record as “significant resistance”.

Consider `CC[C@@]1(O)C(=O)OCc2c1cc1n(c2=O)Cc2cc3c(CN(C)C)c(O)ccc3nc2-1` [topotecan], for which the “resistance of S1-M1-80 cells to the drug” value in data set [5] is given as “significant resistance”.
